Numbers after ± are expanded uncertainties.
Settings: Liquid

vapor or sublimation pressure (337.57 K) | vapor or sublimation pressure (329.97 K) | Compound
101.3 ± 0.86 kPa | – | CO [methanol]
– | 101.3 ± 0.86 kPa | COC(C)=O [methyl ethanoate]

— the NIST ThermoML archive (doi:10.1021/je100932m)
